Assay results: patent publication EP0906100B1, “USE OF 5-HT 1A? RECEPTOR ANTAGONISTS FOR THE TREATMENT OF URINARY INCONTINENCE” (RECORDATI S.A., priority 1996, dated 1997)
Read-outs that look alike come from different tables or passages of the source.

What was measured:
[1] = system: pre-synaptic 5-HT1A receptor; assay: Antagonism of hypothermia induced by 8-OH-DPAT in mice; format: in vivo; conditions: s.c., hypothermia induced by 0.5 mg/kg s.c. 8-OH-DPAT
Description: Antagonism of hypothermia induced by 8-OH-DPAT in mice:
The antagonistic effect of 5-HT1A receptor antagonists on hypothermia induced by 8-OH-DPAT was evaluated by the method of Moser (Moser, Eur. J. Pharmacol., 193, 165, 1991) with minor modifications.
Male CD-1 mice (28-38 g) obtained from Charles River (Italy) were housed in a climate-controlled room (temperature 22 ± 2°C; humidity 55 ± 15%) and maintained on a 12 h light/dark cycle with free access to food and water. On the day of experiment, mice were placed singly in clear plastic boxes under the same ambient conditions. Body temperature was measured by the insertion of a temperature probe (Termist TM-S, LSI) into the rectum to a depth of 2 cm. Rectal temperature was measured immediately prior to subcutaneous injection of the test compound and 30 min later. All animals then received 8-OH-DPAT (0.5 mg/kg s.c.) and their temperature was measured 30 min later. For each animal, temperature changes were calculated with respect to pretreatment values and the mean values were calculated for each treatment group.

[2] = biological target: T1, 5-HT1A receptor (Rattus norvegicus, UniProt P19327); assay: [3H]8-OH-DPAT binding (5HT1A receptors), rat hippocampi; conditions: 1 nM [3H]8-OH-DPAT, read-out: Binding affinity for the 5-HT1A receptor, Ki
T1 construct: Rat hippocampi were homogenized in 50 volumes of ice-cold 50 mM Tris-HCl pH 7.4; from tissue; host or cells: rat hippocampus membranes
T1 sequence (P19327 1-422): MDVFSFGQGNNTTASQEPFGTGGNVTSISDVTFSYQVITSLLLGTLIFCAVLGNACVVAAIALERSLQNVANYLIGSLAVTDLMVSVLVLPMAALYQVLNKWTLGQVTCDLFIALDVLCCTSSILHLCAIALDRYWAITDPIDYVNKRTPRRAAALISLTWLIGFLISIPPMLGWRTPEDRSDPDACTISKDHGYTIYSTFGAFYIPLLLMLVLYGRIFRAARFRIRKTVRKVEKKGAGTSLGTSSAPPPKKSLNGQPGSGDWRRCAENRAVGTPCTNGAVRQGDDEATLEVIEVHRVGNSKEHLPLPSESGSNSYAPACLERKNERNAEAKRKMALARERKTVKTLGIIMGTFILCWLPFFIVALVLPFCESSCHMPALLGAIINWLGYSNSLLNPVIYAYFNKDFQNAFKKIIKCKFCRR
Description: [^3H]8-OH-DPAT binding (5HT1A receptors):
Rat hippocampi were homogenized in 50 volumes of ice-cold 50 mM Tris-HCl pH 7.4. The homogenates were centrifuged at 48,000 x g for 10 minutes, and the pellets were resuspended in the same volume of ice-cold buffer, incubated for 10 minutes at 37°C, centrifuged and resuspended two more times. The final pellets obtained were resuspended in 100 volumes of 50 mM Tris-HCl, pH 7.4, containing 0.1 % ascorbic acid and 10 µM pargyline. 1 ml samples were incubated for 30 min at 25°C with 1 nM [^3H]8-OH-DPAT, in absence or presence of different concentrations (10^-5 to 10^-10 M) of the test compound. Non-specific binding was determined in the presence of 10 µM 5-HT. The incubations were terminated by rapid filtration through Whatman GF/B filters using a Brandel cell harvester, after which the filters were washed with 3 x 3 ml of ice-cold buffer. The radioactivity retained on the filters was determined by liquid scintillation counting.

[3] = system: cystometric parameters (bladder volume capacity, micturition pressure); assay: Cystometric parameters (BVC, MP) in the conscious rat; format: in vivo, rats; conditions: for BVC before treatment / MP before treatment: baseline; for BVC before treatment / MP before treatment / BVC after treatment / MP after treatment: mean±S.E.; for ED50: Rattus norvegicus, read-out: approximate ED50 value, reduction of MP
Description: Male Sprague Dawley rats (Crl: CD° BR) weighing 250-350 g were used. The animals were housed with free access to food and water and maintained on a forced 12 h alternating light-dark cycle at 22-24°C for at least one week, except during performance of the experiment.
An approximately 10 mm long midline incision was made in the shaved and cleaned abdominal wall. The urinary bladder was gently freed from adhering tissues, emptied, and then cannulated, via an incision at the dome, with a polyethylene cannula (Portex PP30), which was permanently sutured with silk thread. The cannula was exteriorized through a subcutaneous tunnel in the retroscapular area, where it was connected with a plastic adapter to avoid the risk of removal by the animal. For intravenous (i.v.) injection of test compounds, a PE 50 polyethylene tubing filled with physiological saline was inserted into the jugular vein and exteriorized in the retroscapular area.
Since cystometrographic parameters have been reported to be influenced by the time elapsed after catheter implantation […].
On the day of the experiment, the rats were placed in Bollman's cages; after a stabilization period of 20 min, the free tip of the bladder catheter was connected through a T-shaped tube to a pressure transducer (Bentley T 800/Marb P 82) and to a peristaltic pump (Gilson minipuls 2) for a continuous infusion, at the constant rate of 0.1 ml/min, of saline solution into the urinary bladder. The intraluminal pressure signal during infusion was continuously recorded on a polygraph (Battaglia Rangoni KO 380 with ADC1/T amplifier). Two urodynamic parameters were evaluated: bladder volume capacity (BVC) and micturition pressure (MP). BVC (in ml) is defined as the minimum volume infused after which detrusor contraction (followed by micturition) occurs. MP (in mmHg) is defined as the maximal intravesical pressure induced by the contraction of detrusor during micturition. Basal BVC and MP values were calculated as the means of the first two recorded cystometrograms. At this point, the infusion was interrupted and the test compounds were administered. Fifteen minutes after intravenous administration, or one hour after oral drug administration, two additional cystometrograms were recorded in each animal and the mean values of the two cystometrographic parameters were calculated.
The statistical significance of the differences in urodynamic parameter values was evaluated by Student's t test for paired data. Only changes showing a probability P<0.01 were considered to be significant.

[4] = 30 µg/kg i.v., 15 min after injection
[5] = 100 µg/kg i.v., 15 min after injection
[6] = 300 µg/kg i.v., 15 min after injection
[7] = 10 mg/kg p.o., 1 hour after oral administration
[8] = 30 mg/kg p.o., 1 hour after oral administration
[9] = conscious rats, i.v., NAN-190 up to the highest administrable dose of 300 µg/kg
[10] = 1000 µg/kg i.v., 15 min after injection
[11] = 1 mg/kg p.o., 1 hour after oral administration
[12] = 3 mg/kg p.o., 1 hour after oral administration

Q: How did the “ID50 (95%) C.L., antagonistic activity for the pre-synaptic 5-HT1A receptor” value [1] turn out when `O=C(C1CCCCC1)N(CCN1CCN(c2cccc3[nH]ccc23)CC1)c1ccccn1` [Compound B, N-{2-[4-(4-Indolyl)-1-piperazinyl]-ethyl}-N-(2-pyridyl)-cyclohexanecarboxamide] was run?
A: 1.9 (1.0-3.7) µg/kg s.c.

Q: What about the Ki [2] of the same compound?
A: 0.13 nM

Q: Which results are given for `COc1ccccc1N1CCN(CCCCN2C(=O)c3ccccc3C2=O)CC1` [NAN-190, 1-(2-methoxyphenyl)-4-[4-(2-phthalimido)-butyl]-piperazine]?
A: BVC before treatment ([3]; 30 µg/kg i.v. group): 0.74 ± 0.09 mL; MP before treatment ([3]; 30 µg/kg i.v. group): 99.4±10.1 mmHg; BVC % change [3, 4]: +6%; MP % change [3, 4]: +5%; BVC after treatment [3, 4]: 0.78 ± 0.10 mL; MP after treatment [3, 4]: 104.6±9.7 mmHg; BVC before treatment ([3]; 100 µg/kg i.v. group): 0.68 ± 0.10 mL; MP before treatment ([3]; 100 µg/kg i.v. group): 93.8±11.5 mmHg; BVC % change [3, 5]: +12%; MP % change [3, 5]: -12%; BVC after treatment [3, 5]: 0.76 ± 0.10 mL; MP after treatment [3, 5]: 82.5±9.2 mmHg; BVC before treatment ([3]; 300 µg/kg i.v. group): 0.62 ± 0.06 mL; MP before treatment ([3]; 300 µg/kg i.v. group): 86.6±10.3 mmHg; BVC % change [3, 6]: -1%; MP % change [3, 6]: +2%; BVC after treatment [3, 6]: 0.61 ± 0.06 mL; MP after treatment [3, 6]: 88.4±11.8 mmHg; BVC before treatment ([3]; 10 mg/kg p.o. group): 0.54 ± 0.08 mL; MP before treatment ([3]; 10 mg/kg p.o. group): 106.1±10.4 mmHg; BVC % change [3, 7]: -14%; MP % change [3, 7]: -14%; BVC after treatment [3, 7]: 0.46 ± 0.07 mL; MP after treatment [3, 7]: 90.8±12.5 mmHg; BVC before treatment ([3]; 30 mg/kg p.o. group): 0.71 ± 0.09 mL; MP before treatment ([3]; 30 mg/kg p.o. group): 105.1±10.5 mmHg; BVC % change [3, 8]: -15%; MP % change [3, 8]: -9%; BVC after treatment [3, 8]: 0.60 ± 0.09 mL; MP after treatment [3, 8]: 95.8±15.3 mmHg; effect on BVC (in words) [3, 9]: devoid of significant effects; effect on MP (in words) [3, 9]: devoid of significant effects; activity on cystometric parameters after oral administration (in words) ([3]; conscious rats, oral, doses up to 30 mg/kg): inactive; ID50 (95%) C.L., antagonistic activity for the pre-synaptic 5-HT1A receptor [1]: not active; Ki [2]: 1.9 nM

Q: How did the BVC before treatment ([3]; 100 µg/kg i.v. group) turn out when `CCN(CC)CC#CCOC(=O)C(O)(c1ccccc1)C1CCCCC1` (stereo not shown) [Oxybutynin, oxybutynin] was run?
A: 0.82 ± 0.15 mL

Q: What about the MP before treatment ([3]; 100 µg/kg i.v. group) of the same compound?
A: 95.2±9.2 mmHg

Q: And the BVC % change [3, 5]?
A: +9%

Q: What about the MP % change [3, 5] of the same compound?
A: -19%

Q: What about the BVC after treatment [3, 5] of the same compound?
A: 0.89 ± 0.18 mL

Q: What about the MP after treatment [3, 5] of the same compound?
A: 77.4±10.3 mmHg

Q: What about the BVC before treatment ([3]; 300 µg/kg i.v. group) of the same compound?
A: 0.83 ± 0.13 mL

Q: And the MP before treatment ([3]; 300 µg/kg i.v. group)?
A: 82.3±8.7 mmHg

Q: What about the BVC % change [3, 6] of the same compound?
A: 0%

Q: And the MP % change [3, 6]?
A: -39%

Q: And the BVC after treatment [3, 6]?
A: 0.83 ± 0.12 mL

Q: And the MP after treatment [3, 6]?
A: 50.5±6.3 mmHg

Q: And the BVC before treatment ([3]; 1000 µg/kg i.v. group)?
A: 0.94 ± 0.19 mL

Q: What about the MP before treatment ([3]; 1000 µg/kg i.v. group) of the same compound?
A: 110.9±10.2 mmHg

Q: What about the BVC % change [3, 10] of the same compound?
A: +7%

Q: And the MP % change [3, 10]?
A: -73%

Q: What about the BVC after treatment [3, 10] of the same compound?
A: 1.00 ± 0.18 mL

Q: What about the MP after treatment [3, 10] of the same compound?
A: 29.6±5.6 mmHg

Q: And the BVC before treatment ([3]; 1 mg/kg p.o. group)?
A: 0.56 ± 0.11 mL

Q: What about the MP before treatment ([3]; 1 mg/kg p.o. group) of the same compound?
A: 92.1±13.3 mmHg

Q: And the BVC % change [3, 11]?
A: +31%

Q: What about the MP % change [3, 11] of the same compound?
A: -16%

Q: And the BVC after treatment [3, 11]?
A: 0.74 ± 0.11 mL

Q: What about the MP after treatment [3, 11] of the same compound?
A: 77.3±9.8 mmHg

Q: What about the BVC before treatment ([3]; 3 mg/kg p.o. group) of the same compound?
A: 0.54 ± 0.07 mL

Q: And the MP before treatment ([3]; 3 mg/kg p.o. group)?
A: 82.1±5.1 mmHg

Q: And the BVC % change [3, 12]?
A: +18%

Q: What about the MP % change [3, 12] of the same compound?
A: -49%

Q: And the BVC after treatment [3, 12]?
A: 0.63 ± 0.13 mL

Q: And the MP after treatment [3, 12]?
A: 42.1±5.1 mmHg

Q: And the BVC before treatment ([3]; 10 mg/kg p.o. group)?
A: 0.55 ± 0.08 mL

Q: And the MP before treatment ([3]; 10 mg/kg p.o. group)?
A: 98.3±9.0 mmHg

Q: What about the BVC % change [3, 7] of the same compound?
A: +27%

Q: What about the MP % change [3, 7] of the same compound?
A: -68%

Q: And the BVC after treatment [3, 7]?
A: 0.70 ± 0.11 mL

Q: What about the MP after treatment [3, 7] of the same compound?
A: 31.8±3.9 mmHg

Q: And the ED50 ([3]; iv, conscious rats, i.v.)?
A: ~0.4 mg/kg

Q: And the ED50 ([3]; conscious rats, oral administration)?
A: ~4 mg/kg

Q: What about the “effect on BVC (in words)” value [3, 9] of the same compound?
A: inactive
